According to article PMC12040169 (PLOS Biology, 2025):

Assay: in vitro
Conditions: human, hela cells, % viability
With `COc1ccc(NC(=O)CSc2nc(O)cc(-c3ccccc3)n2)cc1OC` [CBK263657] the viability at 28.5 h, 10 µM was 96.1%. Work on `COc1cnc(-c2ccccc2OC)c(NC(=O)Cc2ccccc2)n1` [CBK145260] yielded a viability at 28.5 h, 10 µM of 95.8%. Work on `CC1(C)CC(=O)C2=C(C1)CC1(C)CC(C)(C)CC2(Nc2ccccn2)C1` (stereo not drawn) [CBK022425] yielded a viability at 28.5 h, 10 µM of 121%. `CSc1nc(N)nc(SC(C(=O)O)c2ccccc2)c1C#N` (stereo not drawn) [CBK267461] showed a viability at 28.5 h, 10 µM of 93.4%. `N/C(CSc1cccc2c1CCCC2)=N\O` [CBK006787C] showed a viability at 28.5 h, 10 µM of 101%. Molecule `N#C/C(=C/c1ccc(Sc2nc3ccccc3[nH]2)o1)c1ccc(C(=O)O)cc1` [CBK269141] has a viability at 28.5 h, 10 µM of 112%. `CSc1[nH]nc(-c2ccc(C(C)(C)C)cc2)c1C#N` [CBK016999] showed a viability at 28.5 h, 10 µM of 108%. With `O=C(Nc1ccc(F)cc1)N[C@H]1[C@H](O)[C@@H](N2CCCCC2)[C@@H]2OC[C@H]1O2` [CBK288826] the viability at 28.5 h, 10 µM was 98.5%. For `CCOc1ccc(-c2n[nH]c(C(=O)N/N=C3/C(=O)Nc4ccccc43)c2C)cc1` [CBK262889], the viability at 28.5 h, 10 µM was 99.6%. `CSCCCNC(=O)c1ccc2nc[nH]c2c1` [CBK153314] showed a viability at 28.5 h, 10 µM of 116%. `Cc1noc(NS(=O)(=O)c2ccc(NC(=O)COc3cccc(Br)c3)cc2)c1C` [CBK264086] showed a viability at 28.5 h, 10 µM of 104%. For `Oc1ccc(/C=C/c2nc(-c3ccccc3O)n(-c3ccccc3)n2)cc1` [CBK265289], the viability at 28.5 h, 10 µM was 74.4%. `COCCN(CC1CC1)C(=O)c1cc(NC(C)=O)ccc1Cl` [CBK304352] showed a viability at 28.5 h, 10 µM of 109%. For `Cc1cc(C)c2c(n1)oc1c(Cl)ncnc12` [CBK008822], the viability at 28.5 h, 10 µM was 93%. Work on `CCCc1cc(C(N)=O)cc(CCC)c1OCC` [CBK015537] yielded a viability at 28.5 h, 10 µM of 98%. With `O=C(Cn1cccc2cc(-c3cccs3)nc1-2)NC1CC1` [CBK281897] the viability at 28.5 h, 10 µM was 108%. `O=C(CN1C(=O)c2ccccc2S1(=O)=O)N(Cc1ccccc1)Cc1ccccc1` [CBK265982] gave a viability at 28.5 h, 10 µM of 107%. With `CN(C)c1ccc(/C=C(\C#N)c2nn(-c3ccccc3)c(N)c2C#N)cc1[N+](=O)[O-]` [CBK262532] the viability at 28.5 h, 10 µM was 83.4%. With `CCCSc1nnc(-c2ccccc2NC(=O)CC)c(O)n1` [CBK265081] the viability at 28.5 h, 10 µM was 92.8%. `O=C(CN1CCC(NC(=O)c2cccs2)CC1)Nc1cc(F)ccc1F` [CBK305997] showed a viability at 28.5 h, 10 µM of 102%. `COCC(=O)N1CCN2C(=O)c3cc(-c4ccccc4F)ccc3NC(=O)[C@H]2C1` [CBK289587] gave a viability at 28.5 h, 10 µM of 82.4%. `Cc1c(-c2ccnc(N3CCOCC3)n2)cnc2nc(-c3ccncc3)nn12` [CBK288551] gave a viability at 28.5 h, 10 µM of 98.6%. Work on `COc1ccc([N+](=O)[O-])cc1NC(=O)CSc1nnnn1C` [CBK268950] yielded a viability at 28.5 h, 10 µM of 93%. With `COc1ccc(CCNC(=O)C2CCN(S(=O)(=O)c3ccccc3)CC2)cc1` [CBK264985] the viability at 28.5 h, 10 µM was 95%. For `CN(Cc1ccccc1)S(=O)(=O)c1ccccc1[N+](=O)[O-]` [CBK261458], the viability at 28.5 h, 10 µM was 92.3%. `CC(=O)NCCNS(=O)(=O)c1ccc(C(C)C)cc1` [CBK043726] showed a viability at 28.5 h, 10 µM of 92.5%. `Cn1c(SCC(=O)N2CCN(c3cccc(Cl)c3)CC2)nnc1-c1cccc([N+](=O)[O-])c1` [CBK266264] showed a viability at 28.5 h, 10 µM of 97.8%. `O=c1cc(O)cc(CCc2ccccc2)o1` [CBK012714] showed a viability at 28.5 h, 10 µM of 117%. Molecule `CC(C)(C)c1ccc(OCc2nnc(S)n2N)cc1` [CBK268421] has a viability at 28.5 h, 10 µM of 89.1%. In the case of `FC(F)(F)c1ccnc(OCc2cccnc2)n1` [CBK115902], the viability at 28.5 h, 10 µM is reported as 102%. With `CC(c1cccs1)N(C)C(=O)NC1CCCc2c1cnn2CCO` (stereo not drawn) [CBK306289] the viability at 28.5 h, 10 µM was 113%. For `CC(Cc1ccsc1)NS(=O)(=O)c1cccc(C(=O)N2CCCC2)c1` (stereo not drawn) [CBK306923], the viability at 28.5 h, 10 µM was 85.8%. For `COc1cccc2cc(C(=O)NCc3ccc(NS(C)(=O)=O)cc3)oc12` [CBK161479], the viability at 28.5 h, 10 µM was 70.8%. `COc1cccc2cc(C(=O)N3CCN(CCO)CC3)c(=O)oc12` [CBK293932] gave a viability at 28.5 h, 10 µM of 89.5%. Molecule `O=C(CN1CCCC[C@H]2CN(C(=O)c3cccs3)C[C@H]21)NC1CC1` [CBK285504] has a viability at 28.5 h, 10 µM of 90.5%. `Cc1c(S(=O)(=O)Nc2ccc(-c3ccc(F)cc3)cc2)cnn1C` [CBK281418] gave a viability at 28.5 h, 10 µM of 114%. `NS(=O)(=O)c1ccc(CCNC2CC(=O)N(Cc3ccccc3)C2=O)cc1` (stereo not drawn) [CBK267439] gave a viability at 28.5 h, 10 µM of 90.5%. For `Cc1ccc(NC(=O)Cc2ccc(N(C)C)cc2)c(C)n1` [CBK200295], the viability at 28.5 h, 10 µM was 104%. In the case of `COc1ccc(C2C=C(c3ccc(OC)c(OC)c3)Nc3ncnn32)c(OC)c1` (stereo not drawn) [CBK293934], the viability at 28.5 h, 10 µM is reported as 93.3%. Molecule `CCc1nc2c(OCc3ccc(Cl)cc3)cccn2c1N(C=O)CC(=O)N(C)C` [CBK147518] has a viability at 28.5 h, 10 µM of 96.4%. In the case of `COc1ccc(CCN2CCN(c3nccnc3OCc3cc(C)on3)CC2)cc1OC` [CBK084207], the viability at 28.5 h, 10 µM is reported as 105%. Molecule `O=C(O)CSCC(=O)N(Cc1ccccc1)c1nc(-c2ccccc2)c(-c2ccccc2)s1` [CBK296138] has a viability at 28.5 h, 10 µM of 97.5%. Molecule `Cc1cccc(-c2ccc(CC3(C(=O)NC(C)C)CCN(C(=O)C4CC4)CC3)cc2)c1` [CBK285757] has a viability at 28.5 h, 10 µM of 93.3%. With `CCCCC(c1ccc(Cl)cc1)N(CCN(C)C)c1ccccn1` (stereo not drawn) [CBK012315F] the viability at 28.5 h, 10 µM was 86.3%. In the case of `COC(=O)Cn1c(-c2ccc(F)cc2)cc2cccnc21` [CBK282763], the viability at 28.5 h, 10 µM is reported as 91.5%. `CC(NC(=O)N(CCCN)Cc1c[nH]c(-c2ccccc2)n1)c1cccc2ccccc12` (stereo not drawn) [CBK034672C] gave a viability at 28.5 h, 10 µM of 119%. With `O=C(CSc1ncn(-c2ccccc2)n1)Nc1cc(Cl)cc(Cl)c1` [CBK268261] the viability at 28.5 h, 10 µM was 92%. Molecule `COc1ccccc1N(CC(=O)Nc1ccc2c(c1)oc1ccccc12)S(=O)(=O)c1ccccc1` [CBK264737] has a viability at 28.5 h, 10 µM of 87.8%. Work on `CCC1c2ccc(C)n2CCN1C(=O)c1cc(-c2ccccn2)n[nH]1` (stereo not drawn) [CBK283225] yielded a viability at 28.5 h, 10 µM of 86.4%. For `O=C1Nc2ccc(-c3cccc(C(F)(F)F)c3)cc2C(=O)N2C[C@H](O)C[C@@H]12` [CBK289273], the viability at 28.5 h, 10 µM was 106%. Molecule `O=C(Nc1ncccc1O)c1c(O)c2ccccc2n(Cc2ccccc2)c1=O` [CBK291211] has a viability at 28.5 h, 10 µM of 103%. In the case of `Cc1cccc(C)c1OCC(=O)Nc1ccccc1C(=O)N1CCOCC1` [CBK270096], the viability at 28.5 h, 10 µM is reported as 91.2%. With `O=S(=O)(N1CCCCCC1)N1CCNCC1` [CBK269219C] the viability at 28.5 h, 10 µM was 96.5%. Molecule `Cc1nnc(Sc2nc3ccccc3nc2C(F)(F)F)s1` [CBK093774] has a viability at 28.5 h, 10 µM of 94.8%. `CCn1cc(CN(CCCN(C)C)Cc2ccc(C)o2)c(C)n1` [CBK283201] showed a viability at 28.5 h, 10 µM of 95.5%. `O=C(CO)N1CC2(CCN(Cc3cc(=O)[nH]c(=O)[nH]3)CC2)c2ccccc21` [CBK131510] showed a viability at 28.5 h, 10 µM of 106%. For `COc1ccc(-c2cc([C@H]3CN4CC[C@H]3C[C@@H]4CNC(C)=O)n(C)n2)cc1OC` [CBK288757], the viability at 28.5 h, 10 µM was 86.3%. With `CCOc1ccc(CNc2ccc(C3c4ccsc4CCN3C(=O)COC)cc2)cc1` (stereo not drawn) [CBK286453] the viability at 28.5 h, 10 µM was 85.3%. `CCCn1c(=O)c(C(=O)NCCN(CC)CC)c(O)c2cc(Br)ccc21` [CBK291118] showed a viability at 28.5 h, 10 µM of 85.7%. `CCCN1CCC(NC(=O)c2cc(COc3cccc(F)c3)[nH]n2)CC1` [CBK306753] showed a viability at 28.5 h, 10 µM of 88.5%. With `OCCN(CCO)CC1CC=CCC1` (stereo not drawn) [CBK261907] the viability at 28.5 h, 10 µM was 108%. In the case of `COc1cccc(C2(O)CCCC3CN(C(C)=O)CC32)c1` (stereo not drawn) [CBK283242], the viability at 28.5 h, 10 µM is reported as 80.8%.

Same assay, conditions: human, hela cells, % viability, bulk resorufin, single well
For `CCOc1cc(C=C2C(=O)NC(=O)NC2=O)ccc1OS(=O)(=O)c1ccc([N+](=O)[O-])cc1` [CBK263614], the viability at 28.5 h, 10 µM was 82.9%.
